From patent US20230135093A1, “TRIAZOLYL DERIVATIVES AS GABA A ALPHA5 PAM” (Hoffmann-La Roche Inc., priority 2020, published 2023)

Key:
[1] = molecular target: T1, h-GABA-A α5β3γ2 (Homo sapiens, UniProt P18507+P31644); experiment: Two-electrode voltage clamp electrophysiology in Xenopus oocytes expressing GABAA receptors (modulation of GABA EC20 current); assay type: cell-based; settings: Table 1; for Efficacy (GABA) %: % modulation of GABA EC20 = 100*(Fold increase-1); for Fold increase h-GABA-A α5β3γ2 oocyte: Xenopus oocytes, GABA EC20, test compound at approximatively 30 fold its Ki
T1 construct: expressed in transfected cells; host or cells: Xenopus laevis oocytes, micro-injected with subunit RNA
Protocol: Xenopus laevis oocytes at maturation stages V-VI were used for the expression of cloned mRNA encoding GABAA receptor subunits. Oocytes ready for RNA micro-injection were bought from Ecocyte, Castrop-Rauxel, Germany and stored in modified Barth's medium (composition in mM: NaCl 88, KCl 1, NaHCO3 2.4, HEPES 10, MgSO4 0.82, CaNO3 0.33, CaCl2 0.33, pH=7.5) at 20° C. until the experiment.
Oocytes were plated in 96-well plates to be used in an automated instrument (Robo-ocyte, MultiChannelSystems, Reutlingen, Germany) for microinjection and electrophysiological recordings. Approximately 50 nl of an aqueous solution containing the RNA transcripts for the subunits of the desired GABAA receptor was injected into each oocyte. RNA concentrations ranged between 0.3 and 16 ng/μl/subunit and were adjusted in pilot experiments to obtain GABA responses of a suitable size and a maximal effect of the reference modulator, Beta-CCM (3-CCM), a betacarboline negative allosteric modulator (NAM) at the GABAA receptor benzodiazepine (BZD) binding site or Midazolam, a benzodiazepine positive allosteric modulator (PAM) at the GABAA receptor benzodiazepine (BZD) binding site. The concentration of the γ2 subunit encoding RNA usually was 5- to 10-fold higher than the RNAs encoding the other subunits. Oocytes were kept in modified Barth's medium (composition in mM: NaCl 88, KCl 1, NaHCO3 4, HEPES 10, MgSO4 0.82, CaNO3 0.33, CaCl2 0.33, pH=7.5) at 20° C. until the experiment.
Electrophysiological experiments were performed on days 3 to 5 after the micro-injection of mRNA. During the experiment the oocytes were constantly superfused by a solution containing (in mM) NaCl 90, KCl 1, HEPES 5, MgCl2 1, CaCl2 1 (pH 7.4). Oocytes were impaled by two glass microelectrodes (resistance: 0.4 MQ) which were filled with a solution containing KCl 1M+K-acetate 1.5 M and voltage-clamped to −80 mV. The recordings were performed at room temperature using the Roboocyte two-electrode voltage clamp system (Multichannelsystem). After an initial equilibration period of 1.5 min GABA was added for 1.5 min at a concentration evoking approximately 20% of a maximal current response (EC20). After another rest interval of 2.5 min GABA was again added evoking a response of similar amplitude and shape. 0.5 min after the onset of this second GABA application the test compound, at a concentration corresponding to approximatively 30 fold its Ki, was added while GABA was still present. Current traces were recorded at a digitization rate of 10 Hz during and shortly before and after the GABA application.
Each compound and concentration was tested on at least 3 oocytes. Different oocytes were used for different compound concentrations. β-CCM, a negative allosteric modulator, or Midazolam, a positive allosteric modulators, were tested on a few (3-6) oocytes on each 96-well plate for a positive control at a maximally effective. β-CCM inhibited the GABA-evoked current by approximatively 50% (Fold increase 0.5), while Midazolam potentiated the GABA-induced current by approximatively 150% (Fold increase 2.5).
For the analysis, the digitized current traces of the first and second GABA response were superimposed and, if necessary, rescaled to equal maximal amplitudes. The ratio between the two responses during the time interval of test compound application was calculated point by point. The extremum of the resulting “ratio trace” was taken as the efficacy (“Fold increase”) of the compound expressed as “% modulation of GABA EC20” (100*(Fold increase-1)).

[2] = molecular target: T1, h-GABA-A α5β3γ2; experiment: [3H]flumazenil competition binding assay on membranes of HEK293 cells expressing GABAA receptors; settings: Table 1; displacement of [3H]-Flumazenil (0.5 nM), HEK293 cells expressing human receptors, means of two determinations
Protocol: The affinity of compounds at GABAA receptor subtypes was measured by competition for [3H]flumazenil (85 Ci/mmol; Roche) binding to HEK293 cells expressing rat (stably transfected) or human (transiently transfected) receptors of composition α1β3γ2, α2β3γ2, α3β3γ2 and α5β3γ2.
Cell pellets were suspended in Krebs-tris buffer (4.8 mM KCl, 1.2 mM CaCl2, 1.2 mM MgCl2, 120 mM NaCl, 15 mM Tris; pH 7.5; binding assay buffer), homogenized by polytron for ca. 20 sec on ice and centrifuged for 60 min at 4° C. (50000 g; Sorvall, rotor: SM24=20000 rpm). The cell pellets were resuspended in Krebs-tris buffer and homogenized by polytron for ca. 15 sec on ice. Protein was measured (Bradford method, Bio-Rad) and aliquots of 1 mL were prepared and stored at −80° C.
Radioligand binding assays were carried out in a volume of […] (96-well plates) which contained […] of cell membranes, [^3H]-Flumazenil at a concentration of 1 nM for α1, α2, α3 subunits and 0.5 nM for α5 subunits and the test compound in the range of […]. Nonspecific binding was defined by 10^−5 M diazepam and typically represented less than 5% of the total binding. Assays were incubated to equilibrium for 1 hour at 4° C. and harvested onto GF/C uni-filters (Packard) by filtration using a Packard harvester and washing with ice-cold wash buffer (50 mM Tris; pH 7.5). After drying, filter-retained radioactivity was detected by liquid scintillation counting. Ki values were calculated using Excel-Fit (Microsoft) and are the means of two determinations.
In a preferred embodiment the compounds of the invention are binding selective for the α5 subunit relative to the α1, α2 and α3 subunit. Representative test results, obtained by the above described assay measuring binding affinity to HEK293 cells expressing human (h) receptors, are shown in the Table below.

SMILES | Efficacy (GABA) % [1] | Fold increase h-GABA-A α5β3γ2 oocyte [1] | Ki [2]
Cc1nnn(-c2ccc(Cl)cc2F)c1Cn1ncc(N2CC(OCC(F)(F)F)C2)cc1=O [Example 34, 2-[[3-(4-chloro-2-fluoro-phenyl)-5-methyl-triazol-4-yl]methyl]-5-[3-(2,2,2-trifluoro-ethoxy)azetidin-1-yl]pyridazin-3-one] | 85% | 1.85 | 44.2 nM
Cc1nnn(-c2ccc(Cl)cc2F)c1Cn1ncc(N2CCO[C@@H](C)C2)cc1=O [Example 35, 2-[[3-(4-chloro-2-fluoro-phenyl)-5-methyl-triazol-4-yl]methyl]-5-[(2S)-2-methylmorpholin-4-yl]pyridazin-3-one] | 130% | 2.3 | 10.4 nM
Cc1nnn(-c2ccc(Cl)cc2F)c1Cn1ncc(N2CCO[C@H](C)C2)cc1=O [Example 36, 2-[[3-(4-chloro-2-fluoro-phenyl)-5-methyl-triazol-4-yl]methyl]-5-[(2R)-2-methylmorpholin-4-yl]pyridazin-3-one] | 106% | 2.06 | 12.4 nM
Cc1nnn(-c2ccc(Cl)cc2F)c1Cn1ncc(N2CCC(n3ccnc3C)CC2)cc1=O [Example 38, 2-[[3-(4-chloro-2-fluoro-phenyl)-5-methyl-triazol-4-yl]methyl]-5-[4-(2-methylimidazol-1-yl)-1-piperidyl]pyridazin-3-one] | 78% | 1.78 | 5.6 nM
COc1ncccc1N1CCN(c2cnn(Cc3c(C)nnn3-c3ccc(Cl)cc3F)c(=O)c2)CC1 [Example 39, 2-[[3-(4-chloro-2-fluoro-phenyl)-5-methyl-triazol-4-yl]methyl]-5-[4-(2-methoxy-3-pyridyl)piperazin-1-yl]pyridazin-3-one] | 108% | 2.08 | 11.5 nM
CC(C)N1CCN(c2cnn(Cc3c(-c4ccc(Cl)cc4)nnn3C)c(=O)c2)C[C@@H]1C [Example 40, 2-[[5-(4-chlorophenyl)-3-methyl-triazol-4-yl]methyl]-5-[(3S)-4-isopropyl-3-methyl-piperazin-1-yl]pyridazin-3-one] | 103% | 2.03 | 20.2 nM
CCOC1CN(c2cnn(Cc3c(-c4ccc(Cl)cc4)nnn3C)c(=O)c2)C1 [Example 41, 2-[[5-(4-chlorophenyl)-3-methyl-triazol-4-yl]methyl]-5-(3-ethoxyazetidin-1-yl)pyridazin-3-one] | 47% | 1.47 | 37.7 nM
CC(C)O[C@@H]1CCN(c2cnn(Cc3c(-c4ccc(Cl)cc4F)nnn3C)c(=O)c2)C1 [Example 42, 2-((5-(4-chloro-2-fluoro-phenyl)-3-methyl-triazol-4-yl)methyl)-5-((3R)-3-isopropoxy-pyrrolidin-1-yl)pyridazin-3-one] | 71% | 1.71 | 18.3 nM
Cn1nnc(-c2ccc(Cl)cc2F)c1Cn1ncc(N2CC(Oc3ccccn3)C2)cc1=O [Example 43, 2-((5-(4-chloro-2-fluoro-phenyl)-3-methyl-triazol-4-yl)methyl)-5-(3-(2-pyridyl-oxy)azetidin-1-yl)pyridazin-3-one] | 97% | 1.97 | 7.9 nM
CC(C)N1CCN(c2cnn(Cc3c(-c4ccc(Cl)cc4F)nnn3C)c(=O)c2)C[C@@H]1C [Example 44, 2-((5-(4-chloro-2-fluoro-phenyl)-3-methyl-triazol-4-yl)methyl)-5-((3S)-4-isopropyl-3-methyl-piperazin-1-yl)pyridazin-3-one] | 82% | 1.82 | 4.4 nM
C[C@H]1CN(c2cnn(Cc3c(-c4ccc(Cl)cc4F)nnn3C)c(=O)c2)CCO1 [Example 45, 2-((5-(4-chloro-2-fluoro-phenyl)-3-methyl-triazol-4-yl)methyl)-5-((2S)-2-methylmorpholin-4-yl)pyridazin-3-one] | 115% | 2.15 | 1.4 nM
C[C@@H]1CN(c2cnn(Cc3c(-c4ccc(Cl)cc4F)nnn3C)c(=O)c2)CCO1 [Example 46, 2-((5-(4-chloro-2-fluoro-phenyl)-3-methyl-triazol-4-yl)methyl)-5-((2R)-2-methylmorpholin-4-yl)pyridazin-3-one] | 86% | 1.86 | 1.6 nM
CCc1nccn1C1CCN(c2cnn(Cc3c(C)nnn3-c3ccc(Cl)cc3F)c(=O)c2)CC1 [Example 47, 2-[[3-(4-chloro-2-fluoro-phenyl)-5-methyl-triazol-4-yl]methyl]-5-[4-(2-ethylimidazol-1-yl)-1-piperidyl]pyridazin-3-one] | 130% | 2.3 | 13.2 nM
CC(C)OC1CN(c2cnn(Cc3c(-c4ccc(Cl)cc4F)nnn3C)c(=O)c2)C1 [Example 48, 2-((5-(4-chloro-2-fluoro-phenyl)-3-methyl-triazol-4-yl)methyl)-5-(3-isopropoxyazetidin-1-yl)pyridazin-3-one] | 52% | 1.52 | 8.5 nM
Cn1nnc(-c2ccc(Cl)cc2F)c1Cn1ncc(N2CC(OC3CCC3)C2)cc1=O [Example 49, 2-((5-(4-chloro-2-fluoro-phenyl)-3-methyl-triazol-4-yl)methyl)-5-(3-(cyclobutoxy)azetidin-1-yl)pyridazin-3-one] | 73% | 1.73 | 8.3 nM
Cn1nnc(-c2ccc(Cl)cc2F)c1Cn1ncc(N2CC(OCC(F)(F)F)C2)cc1=O [Example 50, 2-((5-(4-chloro-2-fluoro-phenyl)-3-methyl-triazol-4-yl)methyl)-5-(3-(2,2,2-trifluoro-ethoxy)azetidin-1-yl)pyridazin-3-one] | 67% | 1.67 | 5.2 nM
CCCOC1CN(c2cnn(Cc3c(-c4ccc(Cl)cc4F)nnn3C)c(=O)c2)C1 [Example 51, 2-((5-(4-chloro-2-fluoro-phenyl)-3-methyl-triazol-4-yl)methyl)-5-(3-propoxyazetidin-1-yl)pyridazin-3-one] | 94% | 1.94 | 21.4 nM
